Among the data in patent US10414763B2 (CANCER RESEARCH TECHNOLOGY LIMITED, priority 2014, dated 2019) are IC50 values, retold here.

As usually defined, the IC50 is the midpoint of a concentration-inhibition curve.

Each structure is given as a SMILES string.

The assay concerns the target T1, full-length human PKCι (Homo sapiens, UniProt P41743).
T1 construct: Recombinant, full-length human PKCι expressed in Sf21 insect cells is also commercially available; purchased EMD Millipore; host or cells: Sf21 insect cells (baculovirus)
T1 sequence (P41743 1-596): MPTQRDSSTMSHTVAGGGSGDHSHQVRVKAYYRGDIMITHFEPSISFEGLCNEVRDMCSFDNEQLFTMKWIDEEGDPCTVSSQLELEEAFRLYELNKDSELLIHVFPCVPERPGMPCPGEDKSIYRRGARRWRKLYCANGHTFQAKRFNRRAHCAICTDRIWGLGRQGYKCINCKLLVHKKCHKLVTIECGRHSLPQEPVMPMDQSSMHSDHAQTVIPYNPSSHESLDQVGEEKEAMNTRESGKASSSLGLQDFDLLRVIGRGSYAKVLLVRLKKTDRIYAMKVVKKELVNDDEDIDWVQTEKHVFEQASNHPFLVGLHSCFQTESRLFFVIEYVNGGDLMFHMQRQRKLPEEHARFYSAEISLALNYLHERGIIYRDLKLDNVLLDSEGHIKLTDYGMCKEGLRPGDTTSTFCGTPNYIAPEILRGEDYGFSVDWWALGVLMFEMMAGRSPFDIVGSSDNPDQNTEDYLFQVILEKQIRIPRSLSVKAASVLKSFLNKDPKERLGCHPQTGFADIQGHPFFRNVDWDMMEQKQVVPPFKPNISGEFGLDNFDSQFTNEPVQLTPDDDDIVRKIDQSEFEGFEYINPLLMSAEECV
Description: PKCι IC50 IMAP fluorescence polarisation assay, full-length enzyme, 150 μM ATP. The class given is biochemical. The note with it: read-out: IC50 in IMAP assay against full length PKCi at 150 μM ATP. Summed up: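 IMAP fluorescence polarisation kinase assay: 15 pM baculovirus-expressed human PKCiota with 100 nM FAM-pseudosubstrate peptide and 150 μM ATP, 1 h at 25 °C. IMAP detection reagent then 2 h at 25 °C before FP measurement. Inhibition referenced to no-compound and no-enzyme controls for IC50 fitting.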
In general terms: Fluorescence polarisation rises when a labelled molecule tumbles more slowly, as on binding a larger partner.
Turning to `C[C@@H]1CNCC[C@@H]1Nc1nc(-c2ccnc(Nc3ncc(F)cc3F)c2)nc2cncc(C3CC3)c12` (racemic) [Example 300, {5-Cyclopropyl-2-[2-(3,5-difluoro-pyridin-2-ylamino)-pyridiri-4-yl]-pyrido[3,4-d]pyrimidin-4-yl}-(rac-(3R,4S)-3-methyl-piperidin-4-yl)-amine], the 50% inhibitory concentration (IC50) is 100 to 1000 nM.

Consider `Fc1cc(F)c(Nc2cc(-c3nc(NC4CCCNCC4)c4c(C5CCC5)cncc4n3)ccn2)nc1F` (stereo not shown) [Example 159, Azepan-4-yl-{5-cyclobutyl-2-[2-(3,5,6-trifluoro-pyridin-2-ylamino)-pyridin-4-yl]-pyrido[3,4-d]pyrimidin-4-yl}-amine], for which the IC50 was below 100 nM.

With `CC(C)(C)c1csc(Nc2cc(-c3nc(N4CCNCC4)c4c(C5CC5)cncc4n3)ccn2)n1` [Example 52, (4-tert-Butyl-thiazol-2-yl)-[4-(5-cyclopropyl-4-pipcrazin-1-yl-pyrido[3,4-d]pyrimidin-2-yl)-pyridin-2-yl]-amine], the IC50 was 100 to 1000 nM.

Take `CC1(C)CNCC[C@@H]1Nc1nc(-c2ccnc3[nH]c(-c4cncc(F)c4)cc23)nc2cncc(C3CCC3)c12` [Example 370, {5-Cyclobutyl-2-[2-(5-fluoro-pyridin-3-yl)-1H-pyrrolo[2,3-b]pyridin-4-yl]-pyrido[3,4-d]pyrimidin-4-yl}-((S)-3,3-dimethyl-piperidin-4-yl)-amine]: the IC50 is below 100 nM.

As for `C[C@@H]1CNCC[C@@H]1Nc1nc(-c2ccnc(Nc3nc(F)ccc3F)c2)nc2cncc(C3CC3)c12` (racemic) [Example 224, (±)-{5-Cyclopropyl-2-[2-(3,6-difluoro-pyridin-2-ylamino)-pyridin-4-yl]-pyrido[3,4-d]pyrimidin-4-yl}-((3,4-cis)-3-methyl-piperidin-4-yl)-amine], the IC50 is below 100 nM.

As to `CC1(C)CNCC[C@@H]1Nc1nc(-c2ccnc3[nH]c(-c4ccncc4)cc23)nc2cncc(C3CC3)c12` [Example 371, 5-Cyclopropyl-N-[(4S)-3,3-dimethyl-4-piperidyl]-2-[2-(4-pyridyl)-1H-pyrrolo[2,3-b]pyridin-4-yl]pyrido[3,4-d]pyrimidin-4-amine], the IC50 was below 100 nM.

`c1ccc2c(c1)[nH]c1nccc(-c3nc(N4CCOC5CNCC54)c4c(C5CCC5)cncc4n3)c12` (stereo not shown) [Example 206, 4-[5-Cyclobutyl-4-(hexahydro-pyrrolo[3,4-b][1,4]oxazin-4-yl)-pyrido[3,4-d]pyrimidin-2-yl]-9H-pyrido[2,3-b]indole]: the IC50 was below 100 nM.

Consider `CC1(C)CNCC[C@@H]1Nc1nc(-c2ccnc(N[C@H](C(=O)O)c3ccccc3)c2)nc2cncc(C3CC3)c12` [Example 267, (2S)-2-[[4-[5-cyclopropyl-4-[[(4S)-3,3-dimethyl-4-piperidyl]amino]pyrido[3,4-d]pyrimidin-2-yl]-2-pyridyl]amino]-2-phenyl-acetic acid], for which the IC50 fell in the range of 1000 to 10000 nM.

As for `c1ccc(-n2cnc(Nc3cc(-c4nc(N5CCNCC5)c5c(C6CCC6)cncc5n4)ccn3)n2)cc1` [Example 330, 4-(5-Cyclobutyl-4-piperazin-1-yl-pyrido[3,4-d]pyrimidin-2-yl)-N-(1-phenyl-1,2,4-triazol-3-yl)pyridin-2-amine], the IC50 was below 100 nM.

On to `O[C@H]1CNCC[C@H]1Nc1nc(-c2ccnc(Nc3ncccc3F)c2)nc2cncc(C3CCC3)c12` (racemic) [Example 292, rac-(3S,4R)-4-{5-Cyclobutyl-2-[2-(3-fluoro-pyridin-2-ylamino)-pyridin-4-yl]-pyrido[3,4-d]pyrimidin-4-ylamino}-piperidin-3-ol], for which the IC50 is below 100 nM.

For the molecule `Clc1cc2c(-c3nc(N4CCNCC4)c4c(C5CCC5)cncc4n3)ccnc2[nH]1` [Example 130, 2-(2-Chloro-1H-pyrrolo[2,3-b]pyridin-4-yl)-5-cyclobutyl-4-piperazin-1-yl-pyrido[3,4-d]pyrimidine], the IC50 is below 100 nM.

For the molecule `Clc1ccccc1-c1cc2c(-c3nc(N4CC[C@@H]5CNCC[C@@H]54)c4c(C5CC5)cncc4n3)ccnc2[nH]1` (racemic) [Example 27, (±)-2-[2-(2-Chloro-phenyl)-1H-pyrrolo[2,3-b]pyridin-4-yl]-5-cyclopropyl-4-(3aR,7aS)-octahydro-pyrrolo[3,2-c]pyridin-1-yl-pyrido[3,4-d]pyrimidine], the half-inhibitory concentration (IC50) was below 100 nM.

On to `Clc1ccccc1-c1cc2c(-c3nc(N[C@@H]4[C@@H]5CC[C@H]4CNC5)c4c(C5CC5)cncc4n3)ccnc2[nH]1` [Example 26, (1R,5S,8S)-3-Aza-bicyclo[3.2.1]oct-8-yl-{2-[2-(2-chloro-phenyl)-1H-pyrrolo[2,3-b]pyridin-4-yl]-5-cyclopropyl-pyrido[3,4-d]pyrimidin-4-yl}-amine], for which the IC50 fell in the range of 100 to 1000 nM.

In the case of `CN(c1nc(-c2ccnc(Nc3ccccc3)c2)nc2cncc(C3CCC3)c12)C1CCNCC1(C)C` (stereo not shown) [Example 110, [5-Cyclobutyl-2-(2-phenylamino-pyridin-4-yl)-pyrido[3,4-d]pyrimidin-4-yl]-(3,3-dimethyl-piperidin-4-yl)-methyl-amine], the IC50 is below 100 nM.

Take `CN(c1nc(-c2ccnc3[nH]c(Sc4ccccc4)cc23)nc2cncc(C3CC3)c12)C1CCNCC1(C)C` (stereo not shown) [Example 29, [5-Cyclopropyl-2-(2-phenylsulfanyl-1H-pyrrolo[2,3-b]pyridin-4-yl)-pyrido[3,4-d]pyrimidin-4-yl]-(3,3-dimethyl-piperidin-4-yl)-methyl-amine]: the IC50 is below 100 nM.

For the molecule `C[C@@H]1CNCC[C@H]1Nc1nc(-c2ccnc3[nH]c4ccccc4c23)nc2cncc(C3CCC3)c12` (racemic) [Example 346, [5-Cyclobutyl-2-(9H-pyrido[2,3-b]indol-4-yl)-pyrido[3,4-d]pyrimidin-4-yl]-(rac-(3R,4R)-3-methyl-piperidin-4-yl)-amine], the IC50 is below 100 nM.

In the case of `COc1nc(-c2cc3c(-c4nc(N5CCC6CNCCC65)c5c(C6CC6)cncc5n4)ccnc3[nH]2)cs1` (stereo not shown) [Example 118, 5-Cyclopropyl-2-[2-(2-methoxy-thiazol-4-yl)-1H-pyrrolo[2,3-b]pyridin-4-yl]-4-(octahydro-pyrrolo[3,2-c]pyridin-1-yl)-pyrido[3,4-d]pyrimidine], the IC50 was below 100 nM.

As to `CC1CNCCC1Nc1nc(-c2ccnc(Nc3nc(F)ccc3F)c2)nc2cncc(C3CCC3)c12` (stereo not shown) [Example 127, {5-Cyclobutyl-2-[2-(3,6-difluoro-pyridin-2-ylamino)-pyridin-4-yl]-pyrido[3,4-d]pyrimidin-4-yl}-(3-methyl-piperidin-4-yl)-amine], the IC50 was below 100 nM.

For `Fc1ccc(Cl)c(-c2cc3c(-c4nc(N5CCOC6CNCC65)c5c(C6CC6)cncc5n4)ccnc3[nH]2)c1` (stereo not shown) [Example 360, 2-[2-(2-Chloro-5-fluoro-phenyl)-1H-pyrrolo[2,3-b]pyridin-4-yl]-5-cyclopropyl-4-(hexahydro-pyrrolo[3,4-b][1,4]oxazin-4-yl)-pyrido[3,4-d]pyrimidine], the IC50 is below 100 nM.

For the molecule `CC1(C)CNCC[C@@H]1Nc1nc(-c2ccnc(Nc3cc4ccccn4n3)c2)nc2cncc(C3CCC3)c12` [Example 380, {5-Cyclobutyl-2-[2-(pyrazolo[1,5-a]pyridin-2-ylamino)-pyridin-4-yl]-pyrido[3,4-d]pyrimidin-4-yl}-((S)-3,3-dimethyl-piperidin-4-yl)-amine], the IC50 is below 100 nM.

Consider `FC(F)(F)c1cncc2nc(-c3ccnc4[nH]c5ccccc5c34)nc(N3CC[C@@H]4CNC[C@@H]43)c12` [Example 216, 4-((3R,6R)-4-Hexahydro-pyrrolo[3,4-b]pyrrol-1-yl-5-trifluoromethyl-pyrido[3,4-d]pyrimidin-2-yl)-9H-pyrido[2,3-b]indole], for which the IC50 was in the range of 100 to 1000 nM.

With `O[C@H]1CNC[C@@H]1Nc1nc(-c2ccnc(Nc3nc(F)ccc3F)c2)nc2cncc(C3CCC3)c12` (racemic) [Example 285, rac-(3S,4S)-4-{5-Cyclobutyl-2-[2-(3,6-difluoro-pyridin-2-ylamino)-pyridin-4-yl]-pyrido[3,4-d]pyrimidin-4-ylamino}-pyrrolidin-3-ol], the IC50 was below 100 nM.

Turning to `Cc1cc2c(-c3nc(N(C)[C@H]4CCNCC4(C)C)c4c(C5CC5)cncc4n3)ccnc2[nH]1` [Example 212, [5-Cyclopropyl-2-(2-methyl-1H-pyrrolo[2,3-b]pyridin-4-yl)-pyrido[3,4-d]pyrimidin-4-yl]-((S)-3,3-dimethyl-piperidin-4-yl)-methyl-amine], the IC50 was below 100 nM.

For the molecule `c1ccc(Nc2cc(-c3nc(N4CCC5NCCC54)c4c(C5CCC5)cncc4n3)ccn2)cc1` (stereo not shown) [Example 102, {4-[5-Cyclobutyl-4-(hexahydro-pyrrolo[3,2-b]pyrrol-1-yl)-pyrido[3,4-d]pyrimidin-2-yl]-pyndin-2-yl}-phenyl-amine], the IC50 was below 100 nM.

For `Cc1cccc(Nc2cc(-c3nc(N[C@H]4CCNCC4(C)C)c4c(C5CCC5)cncc4n3)ccn2)n1` [Example 271, {5-Cyclobutyl-2-[2-(6-methyl-pyridin-2-ylamino)-pyridin-4-yl]-pyrido[3,4-d]pyrimidin-4-yl}-((S)-3,3-dimethyl-piperidin-4-yl)-amine], the IC50 is below 100 nM.
